Calls of active or inactive are those of the source.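 Rule for the calls: active = EC50 at most 30 µM plus a dose-response curve spanning at least 25% response; inactive = the rest.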
molecular target: Ras-related C3 botulinum toxin substrate 1 (Homo sapiens) (UniProt P63000); assay: activated mutant Rac1 GTP binding inhibitors, SAR follow-up, biochemical, pyrazoline analogs, multiplex bead flow cytometry (AID 2048); conditions: Bead-based flow cytometry, Bodipy-FL-GTP binding to GST-Rac1

Structure (SMILES) | EC50
COc1ccc(C2CC(c3ccccc3)=NN2c2ccc(Cl)c(C(=O)O)c2)cc1 (stereo not given) | inactive
COc1ccc(C2CC(c3ccccc3)=NN2c2ccc(S(N)(=O)=O)cc2)cc1OC (stereo not given) | inactive
FC(F)(F)c1ccccc1C1CC(c2ccc(Br)cc2)=NN1c1ccccc1 (stereo not given) | inactive
COc1ccc(C2CC(c3cccc(C)c3)=NN2c2ccc(S(N)(=O)=O)cc2)cc1 (stereo not given) | inactive
COc1ccc(C2CC(c3ccccc3OC)=NN2c2ccc(S(N)(=O)=O)cc2)cc1 (stereo not given) | inactive
COc1ccc(C2CC(c3ccccc3)=NN2c2cccc(S(N)(=O)=O)c2)cc1 (stereo not given) | inactive
NS(=O)(=O)c1ccc(N2N=C(c3ccc(Cl)cc3)CC2c2ccccc2)cc1 (stereo not given) | inactive
COc1ccc(C2CC(c3ccc(Cl)cc3)=NN2c2ccc(S(N)(=O)=O)cc2)cc1 (stereo not given) | inactive
COc1ccc(C2CC(C)=NN2c2ccc(S(N)(=O)=O)cc2)cc1 (stereo not given) | inactive
COc1ccc(C2CC(c3ccccc3C(F)(F)F)=NN2c2ccc(S(N)(=O)=O)cc2)cc1 (stereo not given) | inactive
COc1ccc(C2CC(c3ccc(C)cc3)=NN2c2ccc(S(N)(=O)=O)cc2)cc1 (stereo not given) | inactive
NS(=O)(=O)c1ccc(N2N=C(c3ccccc3)CC2c2cccc(Cl)c2)cc1 (stereo not given) | inactive
COc1ccc(C2CC(c3cccc(N(C)C)c3)=NN2c2ccc(S(N)(=O)=O)cc2)cc1 (stereo not given) | inactive
COc1ccc(C2CC(c3ccc(F)cc3)=NN2c2ccccc2)cc1OC (stereo not given) | inactive
Brc1ccc(N2N=C(c3ccccc3)CC2c2ccccc2)cc1 (stereo not given) | inactive
COc1ccccc1C1CC(c2ccccc2)=NN1c1ccccc1 (stereo not given) | inactive
Cc1ccc(-c2cc(C(F)(F)F)nn2-c2ccc(S(N)(=O)=O)cc2)cc1 | inactive
COc1ccc(C2CC(c3cccs3)=NN2c2ccc(S(N)(=O)=O)cc2)cc1 (stereo not given) | inactive
COc1ccc(C2CC(c3ccc(F)cc3)=NN2c2ccc(S(N)(=O)=O)cc2)cc1 (stereo not given) | inactive
COc1ccc(C2CC(c3ccc(Br)cc3)=NN2c2ccccc2Cl)cc1 (stereo not given) | inactive
COc1ccc(C2=NN(c3cccc(F)c3)C(c3ccc(OC)cc3)C2)cc1 (stereo not given) | inactive
COc1ccc(C2=NN(c3ccc(Cl)c(Cl)c3)C(c3ccc(OC)cc3)C2)cc1 (stereo not given) | inactive
O=C(O)c1ccc(N2N=C(c3ccccc3)CC2c2ccccc2)cc1 (stereo not given) | inactive

Structure (SMILES) | EC50
COc1ccc(C2CC(c3ccc(Br)cc3)=NN2c2ccc(S(N)(=O)=O)cc2)cc1 (stereo not given) | inactive
CN(C)c1ccc(C2CC(c3ccccc3)=NN2c2ccccc2)cc1 (stereo not given) | inactive
COc1ccc(C2CC(c3ccc(F)cc3)=NN2c2cccc(F)c2)cc1OC (stereo not given) | inactive
COc1ccc(C2CC(c3ccccc3)=NN2c2ccc([N+](=O)[O-])cc2)cc1 (stereo not given) | inactive
COc1ccc(C2CC(c3ccncc3)=NN2c2ccc(S(N)(=O)=O)cc2)cc1 (stereo not given) | inactive
NS(=O)(=O)c1ccc(N2N=C(c3ccc(Br)cc3)CC2c2ccc(F)cc2)cc1 (stereo not given) | inactive
CC(=O)Oc1ccc(C2=NN(c3ccccc3)C(c3ccccc3)C2)cc1 (stereo not given) | inactive
COc1ccc(C2CC(c3cccc(Br)c3)=NN2c2ccc(S(N)(=O)=O)cc2)cc1 (stereo not given) | inactive
COc1ccccc1N1N=C(c2ccccc2)CC1c1ccccc1 (stereo not given) | inactive
COc1cccc(C2CC(c3ccccc3)=NN2c2ccc(S(N)(=O)=O)cc2)c1 (stereo not given) | inactive
O=S(=O)(c1ccc(N2N=C(c3ccc(Br)cc3)CC2c2ccccc2)cc1)C(F)F (stereo not given) | inactive
COc1ccc(C2CC(c3ccccc3Br)=NN2c2ccc(S(N)(=O)=O)cc2)cc1 (stereo not given) | inactive
COc1ccc(C2=NN(c3ccccc3)C(c3ccc(OC)c(OC)c3C(=O)O)C2)cc1 (stereo not given) | inactive
O=[N+]([O-])c1ccc(N2N=C(c3ccccc3)CC2c2ccc(O)cc2)cc1 (stereo not given) | inactive
COc1ccc(-c2cc(-c3ccccc3)nn2-c2ccc(S(N)(=O)=O)cc2)cc1 | inactive
CN(C)c1ccc(C2CC(c3ccc(F)cc3)=NN2c2ccccc2)cc1 (stereo not given) | inactive
COc1ccc(C2CC(c3ccc(C(F)(F)F)cc3)=NN2c2ccc(S(N)(=O)=O)cc2)cc1 (stereo not given) | inactive
CN(C)c1ccc(C2CC(c3ccc(Br)cc3)=NN2c2ccccc2)cc1 (stereo not given) | inactive
COc1ccccc1C1CC(c2ccccc2)=NN1c1ccc(S(N)(=O)=O)cc1 (stereo not given) | inactive
COc1ccc(C2CC(c3ccccc3)=NN2c2ccc(C(=O)O)cc2)cc1 (stereo not given) | inactive
FC(F)(F)c1cccc(N2N=C(c3ccc(Cl)cc3)CC2c2ccccc2Cl)c1 (stereo not given) | inactive
COc1ccc(C2=NN(c3ccccc3)C(c3ccccc3C(F)(F)F)C2)cc1 (stereo not given) | inactive
NS(=O)(=O)c1ccc(N2N=C(c3ccccc3)CC2c2ccc(Cl)cc2)cc1 (stereo not given) | inactive

Structure (SMILES) | EC50
COc1ccc(C2CC(c3cccc(C(F)(F)F)c3)=NN2c2ccc(S(N)(=O)=O)cc2)cc1 (stereo not given) | inactive
COc1ccc(C2CC(c3ccc(Cl)cc3)=NN2c2ccccc2)cc1OC (stereo not given) | inactive
COc1ccc(C2CC(c3ccccc3)=NN2c2ccc(C(N)=O)cc2)cc1 (stereo not given) | inactive
NS(=O)(=O)c1ccc(N2N=C(c3ccccc3)CC2c2ccccc2)cc1 (stereo not given) | inactive
COc1ccc(C2CC(c3cccc(OC)c3)=NN2c2ccc(S(N)(=O)=O)cc2)cc1 (stereo not given) | inactive
COc1ccc(C2CC(c3cccc(F)c3)=NN2c2ccc(S(N)(=O)=O)cc2)cc1 (stereo not given) | inactive
COc1ccc(C2CC(c3ccc(F)cc3)=NN2c2cc(Cl)ccc2Cl)cc1 (stereo not given) | inactive
NS(=O)(=O)c1ccc(N2N=C(c3ccccc3)CC2c2ccccc2Cl)cc1 (stereo not given) | inactive
COc1ccc(C2CC(c3ccsc3)=NN2c2ccc(S(N)(=O)=O)cc2)cc1 (stereo not given) | inactive
COc1ccc(C2CC(c3ccccc3F)=NN2c2ccc(S(N)(=O)=O)cc2)cc1 (stereo not given) | inactive
O=S(=O)(c1ccc(N2N=C(c3ccccc3)CC2c2ccccc2)cc1)C(F)F (stereo not given) | inactive
NS(=O)(=O)c1ccc(N2N=C(c3ccccc3)CC2c2ccc(Br)cc2)cc1 (stereo not given) | inactive
Cc1ccc(C2CC(c3ccccc3)=NN2c2ccc(S(N)(=O)=O)cc2)cc1 (stereo not given) | inactive
Cc1ccccc1C1CC(c2ccccc2)=NN1c1ccc(S(N)(=O)=O)cc1 (stereo not given) | inactive
O=[N+]([O-])c1cccc(C2CC(c3ccccc3)=NN2c2ccccc2)c1 (stereo not given) | inactive
NS(=O)(=O)c1ccc(N2N=C(c3ccccc3)CC2c2ccccc2Br)cc1 (stereo not given) | inactive
COc1ccc(C2=NN(c3ccccc3)C(c3ccc(Cl)cc3)C2)cc1 (stereo not given) | inactive
COc1ccc(C2CC(c3ccccc3)=NN2c2ccc(Cl)c(C(=O)O)c2)cc1OC (stereo not given) | inactive
COc1ccc(C2=NN(c3ccc(Cl)cc3)C(c3ccccc3F)C2)cc1 (stereo not given) | inactive
COc1ccc(C2CC(c3cccnc3)=NN2c2ccc(S(N)(=O)=O)cc2)cc1 (stereo not given) | inactive
COc1ccc(C2CC(c3ccccc3Cl)=NN2c2ccc(S(N)(=O)=O)cc2)cc1 (stereo not given) | inactive
Fc1ccccc1C1CC(c2ccc(Br)cc2)=NN1c1ccc(Br)cc1 (stereo not given) | inactive
Cc1ccccc1N1N=C(c2ccccc2)CC1c1cccc([N+](=O)[O-])c1 (stereo not given) | inactive

Structure (SMILES) | EC50
O=S(=O)(O)c1ccc(N2N=C(c3ccccc3)CC2c2ccccc2)cc1 (stereo not given) | inactive
O=[N+]([O-])c1cccc(C2CC(c3ccc(F)cc3)=NN2c2ccccc2)c1 (stereo not given) | inactive
CN(C)c1ccc(C2CC(c3ccccc3)=NN2c2ccc([N+](=O)[O-])cc2)cc1 (stereo not given) | inactive
COc1ccc(C2CC(c3ccccc3C)=NN2c2ccc(S(N)(=O)=O)cc2)cc1 (stereo not given) | inactive
COc1ccc(C2CC(C(C)(C)C)=NN2c2ccc(S(N)(=O)=O)cc2)cc1 (stereo not given) | inactive
CCc1ccc(C2=NN(c3ccc(S(N)(=O)=O)cc3)C(c3ccc(F)cc3)C2)cc1 (stereo not given) | inactive
COc1ccc(C2=NN(c3ccc(S(N)(=O)=O)cc3)C(c3ccc(OC)cc3)C2)cc1 (stereo not given) | inactive
COc1ccc(C2CC(c3cccc(Cl)c3)=NN2c2ccc(S(N)(=O)=O)cc2)cc1 (stereo not given) | inactive
NS(=O)(=O)c1ccc(N2N=C(c3ccccc3)CC2c2cccc(Br)c2)cc1 (stereo not given) | inactive
COc1ccc(C2=NN(c3ccccc3F)C(c3ccc(F)cc3)C2)cc1 (stereo not given) | inactive
Cc1ccccc1N1N=C(c2ccccc2)CC1c1ccc(N(C)C)cc1 (stereo not given) | inactive
Clc1cccc(N2N=C(c3ccccc3)CC2c2ccccc2)c1 (stereo not given) | inactive
Cc1cccc(C2CC(c3ccccc3)=NN2c2ccc(S(N)(=O)=O)cc2)c1 (stereo not given) | inactive
Cc1cccc(N2N=C(c3ccccc3)CC2c2ccccc2)c1 (stereo not given) | inactive
Clc1ccc(N2N=C(c3ccccc3)CC2c2ccccc2)cc1 (stereo not given) | inactive
O=[N+]([O-])c1ccc(N2N=C(c3ccccc3)CC2c2ccccc2)cc1 (stereo not given) | inactive
COc1ccc(C2CC(C3CCCCC3)=NN2c2ccc(S(N)(=O)=O)cc2)cc1 (stereo not given) | inactive
CN(C)c1ccc(C2CC(c3ccc(Cl)cc3)=NN2c2ccccc2)cc1 (stereo not given) | inactive
COc1ccc(C2=NN(c3cccc(F)c3)C(c3ccc(Cl)cc3)C2)cc1 (stereo not given) | inactive
Fc1ccc(C2=NN(c3cccc(Br)c3)C(c3ccccc3)C2)cc1 (stereo not given) | inactive
COc1ccc(C2CC(c3ccc(N(C)C)cc3)=NN2c2ccc(S(N)(=O)=O)cc2)cc1 (stereo not given) | inactive
Cc1onc(-c2ccccc2)c1-c1ccc(S(N)(=O)=O)cc1 | inactive

same assay, conditions: Bead-based flow cytometry, Bodipy-FL-GTP binding to GST-Rac1; measured here: Ki calculated from EC50

Structure (SMILES) | Ki
COc1ccc(C2CC(C)=NN2c2ccc(S(N)(=O)=O)cc2)cc1 (stereo not given) | 10 nM
Cc1ccc(-c2cc(C(F)(F)F)nn2-c2ccc(S(N)(=O)=O)cc2)cc1 | 3910 nM
COc1ccc(C2CC(c3ccc(Br)cc3)=NN2c2ccccc2Cl)cc1 (stereo not given) | 60 nM
COc1ccc(C2CC(c3ccc(F)cc3)=NN2c2cccc(F)c2)cc1OC (stereo not given) | 3030 nM
O=S(=O)(c1ccc(N2N=C(c3ccc(Br)cc3)CC2c2ccccc2)cc1)C(F)F (stereo not given) | 790 nM
COc1ccc(C2CC(c3ccccc3Br)=NN2c2ccc(S(N)(=O)=O)cc2)cc1 (stereo not given) | 40 nM
COc1ccc(C2CC(c3ccc(Cl)cc3)=NN2c2ccccc2)cc1OC (stereo not given) | 10 nM
COc1ccc(C2=NN(c3ccccc3)C(c3ccc(Cl)cc3)C2)cc1 (stereo not given) | 840 nM
COc1ccc(C2=NN(c3ccc(Cl)cc3)C(c3ccccc3F)C2)cc1 (stereo not given) | 3260 nM
